Experimental data from patent US9938322B2, “β-hairpin peptidomimetics” (priority 2013, dated 2018).
*1 amine or outer side, *2 acyl side, *3 side chain or, on linkers, in order; H or OH if unused. Where a SMILES comes first, the peptide text is derived from it. Side-chain parts run from the residue outwards. [ ]: non-standard residue; d: D form. The star is where a group is joined. NH(4-Cl-phenyl) = Clc1ccc(N*)cc1; Cha = N[C@@H](CC1CCCCC1)C(=O)O; Tle = CC(C)(C)[C@H](N)C(=O)O; NH(2-ClPh) = Clc1ccccc1N*; dDab = NCC[C@@H](N)C(=O)O; Orn = NCCC[C@H](N)C(=O)O; Dab = NCC[C@H](N)C(=O)O; Dap = NC[C@H](N)C(=O)O; CO = O=C([*:1])[*:2]

Experiments:
Type in all cases: cell-based
[1] = tested on: Acinetobacter baumannii DSM 30008; conditions: Mueller-Hinton II broth + 0.02% BSA, 18-20 hours at 35° C.
Description: (§1) Lyophilized peptides were weighed on a Microbalance (Mettler MT5) and dissolved in sterile water to a final concentration of 1 mg/ml. Stock solutions were kept at +4° C., light protected.
(§2) The selective antimicrobial activities of the peptides were determined in 96-well plates (Greiner, polystyrene) by the standard NCCLS broth microdilution method (National Committee for Clinical Laboratory Standards 1993. Methods for dilution antimicrobial susceptibility tests for bacteria that grow aerobically, 3rd ed. Approved standard M7-A6; National Committee for Clinical laboratory standards, Wayne, Pa.) with slight modifications. Inocula of the microorganisms were diluted into Mueller-Hinton II (MH, cation adjusted) broth+0.02% BSA and compared with a 0.5 McFarland standard to give appr. 10^6 colony forming units (CFU)/ml. Aliquots (50 μl) of inoculate were added to 50 μl of MH broth+0.02% BSA containing the peptide in serial two-fold dilutions. The following microorganisms were used to determine antibiotic selectivity of the peptides: Escherichia coli ATCC 25922, Klebsiella pneumoniae ATCC 13883 and Acinetobacter baumannii DSM 30008.

[2] = tested on: Escherichia coli ATCC 25922; conditions: Mueller-Hinton II broth + 0.02% BSA, 18-20 hours at 35° C.
Description: as §1, §2

[3] = tested on: Klebsiella pneumoniae ATCC 13883; conditions: Mueller-Hinton II broth + 0.02% BSA, 18-20 hours at 35° C.
Description: as §1, §2

[4] = tested on: human red blood cells (hRBC); assay: Hemolysis of human red blood cells; conditions: 100 μg/ml, 20% hRBC, 1 h at 37° C.
Procedure, shortened: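 Washed fresh human erythrocytes (20% v/v, about 0.9×10^9 cells/ml final) incubated with peptide at 100 μg/ml for 1 h at 37° C with shaking. Supernatant OD540 read; hemolysis expressed relative to 2.5% Triton X-100 (100%) and PBS with 0.001% acetic acid (0%).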

SMILES	Acinetobacter baumannii DSM 30008 MIC [1] [mg/L]	Escherichia coli ATCC 25922 MIC [2] [mg/L]	Klebsiella pneumoniae ATCC 13883 MIC [3] [mg/L]	Hemolysis at 100 μg/ml [4] [%]
C[C@@H]1NC(=O)[C@H](CNC(=O)Nc2ccc(Cl)cc2)NC(=O)[C@@H]2CCCN2C(=O)[C@H]2CCCN2C(=O)[C@H](CO)NC(=O)[C@H](C)NC(=O)[C@H](C(C)(C)C)NC(=O)[C@H](CCN)NC(=O)[C@H](Cc2c[nH]c3ccccc23)NC(=O)[C@H](CCN)NC(=O)[C@@H](CCN)NC(=O)[C@H](CCCN)NC(=O)[C@H](CCN)NC(=O)[C@H](CC2CCCCC2)NC1=O [compound 53] (cyclo([Dap]([CO-NH(4-Cl-phenyl)])A[Cha][Dab][Orn][dDab][Dab]W[Dab][Tle]AS[dP]P))	1	1	1	2
CC(C)C[C@@H]1NC(=O)[C@@H]2CCCN2C(=O)[C@H]2CCCN2C(=O)[C@H](CO)NC(=O)[C@H](C)NC(=O)[C@H](C(C)(C)C)NC(=O)[C@H](CCN)NC(=O)[C@H](Cc2c[nH]c3ccccc23)NC(=O)[C@H](CCN)NC(=O)[C@@H](CCN)NC(=O)[C@H](CCCN)NC(=O)[C@H](CCN)NC(=O)[C@H](CC2CCCCC2)NC(=O)[C@H](CNC(=O)Nc2ccccc2Cl)NC1=O [compound 38] (cyclo(L[Dap]([CO-NH(2-ClPh)])[Cha][Dab][Orn][dDab][Dab]W[Dab][Tle]AS[dP]P))	1	1	1	4
C[C@@H]1NC(=O)[C@H](CNC(=O)Nc2ccccc2Cl)NC(=O)[C@@H]2CCCN2C(=O)[C@H]2CCCN2C(=O)[C@H](CO)NC(=O)[C@H](C)NC(=O)[C@H](C(C)(C)C)NC(=O)[C@H](CCN)NC(=O)[C@H](Cc2c[nH]c3ccccc23)NC(=O)[C@H](CCN)NC(=O)[C@@H](CCN)NC(=O)[C@H](CCCN)NC(=O)[C@H](CCN)NC(=O)[C@H](CC2CCCCC2)NC1=O [compound 52] (cyclo([Dap]([CO-NH(2-ClPh)])A[Cha][Dab][Orn][dDab][Dab]W[Dab][Tle]AS[dP]P))	2	1	1	0
